In patent US20060025380A1, “Formulations for non-parenteral use including hydrophobic cyclodextrins” (deCODE Chemistry Inc, priority 2004, published 2006):

Assay: Solubility of drug in aqueous cyclodextrin complexation media (dissolved drug by HPLC)
Format: physicochemical
Description: General procedure: Zero to 40% w/v of various cyclodextrins were dissolved in 0.25% (w/v) PVP polymer, 50 mM MgCl2 solutions with 50 to 150 mM of various amino acids, resulting in an aqueous complexation media. An excess amount of drug was added to the aqueous complexation media, with the suspension formed then sonicated for 60 minutes at 75° C. (some drugs can also be heated at 121° C. for 20 minutes in autoclave). After an equilibrium period, the drug suspensions were filtered and the amount of dissolved drug was determined by HPLC.
To provide further information as to a specific example, production of the third camptothecin formulation (with proline) listed below is described. 20% w/v of randomly methylated β-cyclodextrin was dissolved in 0.25% (w/v) CMC polymer, 50 mM MgCl2 solutions with 50 mM of Proline and 0.02M HCl (buffer). The drug concentration was 0.526±0.009 mg/ml.
To provide further information as to a specific example, production of the first trichlocarban formulation (with lysine) listed below is described. 20% w/v of randomly methlyated β-cyclodextrin was dissolved in 0.25% (w/v) PVP polymer, 50 mM MgCl2 solutions with 50 mM of L-Lysine hydrochloride. The drug concentration was 5.72±0.07 mg/ml.

Structure (SMILES) | Camptotechin (CPT) 20% RMβCD (50 mM Proline, 0.25% (w/v) CMC polymer, 50 mM MgCl2, 0.02M HCl) [mg/mL] | Camptotechin (CPT) 20% RMβCD (50 mM Proline, 0.25% (w/v) CMC polymer, 50 mM MgCl2, 0.02M HCl, listed as camptothecin) [mg/mL] | Camptotechin (CPT) 20% RMβCD (Cysteine) [mg/mL] | Camptotechin (CPT) 20% RMβCD (Lysine) [mg/mL] | Camptotechin (CPT) 20% RMβCD (No amino acid) [mg/mL] | Camptotechin (CPT) 20% RMβCD (Tryptophan) [mg/mL] | Camptotechin (CPT) 40% HPβCD (40% HPβCD (first column so headed, c2), Lysine) [mg/mL] | Camptotechin (CPT) 40% HPβCD (40% HPβCD (second column so headed, c3), Lysine) [mg/mL] | Trichlocarban (TCC) solubility, CD + poly [µg/mL] | Trichlocarban (TCC) solubility, CD no AA [µg/mL] | solubility of TCC with adipic acid [µg/mL] | solubility of TCC with poly-lysine [µg/mL]
CC[C@@]1(O)C(=O)OCc2c1cc1n(c2=O)Cc2cc3ccccc3nc2-1 [Camptotechin, camptothecin] | 0.526 ± 0.009 | 0.526 ± 0.009 | 0.334 ± 0.025 | 0.285 ± 0.010 | 0.228 ± 0.009 | 0.375 ± 0.002 | 0.493 ± 0.015 | 0.439 ± 0.022 |  |  |  | 
O=C(Nc1ccc(Cl)cc1)Nc1ccc(Cl)c(Cl)c1 [Trichlocarban, trichlocarban] |  |  |  |  |  |  |  |  | 2300 ± 240 | 2050 ± 150 | 5190 ± 210 | 4810 ± 210
